Experimental data as given in ChEMBL document CHEMBL1909046, “DrugMatrix in vitro pharmacology data”.

Legend:
Cytochrome P450 2E1 = Cytochrome P450 2E1 (Homo sapiens, UniProt P05181); conditions: bti-tn-5b1-4; further: in other assays of this panel Not Active means under 50% inhibition at 10 µM
Cannabinoid receptor 1 = Cannabinoid receptor 1 (Homo sapiens, UniProt P21554); assay type: cell membranes, Membrane; conditions: chem-1; further: in other assays of this panel Not Active means under 50% inhibition at 10 µM
Vasopressin V1a receptor = Vasopressin V1a receptor (Homo sapiens, UniProt P37288); assay type: cell membranes, Membrane; conditions: hek293; further: in other assays of this panel Not Active means under 50% inhibition at 10 µM
Nitric oxide synthase 1 = Nitric oxide synthase 1 (Rattus norvegicus, UniProt P29476); assay type: tissue-based, Cerebellum; further: in other assays of this panel Not Active means under 50% inhibition at 10 µM
[1] = biological target: Prostaglandin G/H synthase 1 (Homo sapiens, UniProt P23219); experiment: biochemical; assay type: tissue-based, Platelet; conditions: platelet
[2] = biological target: 5-hydroxytryptamine receptor 1B (Rattus norvegicus, UniProt P28564); assay type: cell membranes, Wistar, Cerebral cortex, Membrane; conditions: for Ki: read-out: Ki
[3] = biological target: cGMP-specific 3',5'-cyclic phosphodiesterase (Homo sapiens, UniProt O76074); experiment: DRUGMATRIX: Phosphodiesterase PDE5 enzyme inhibition (substrate: [3H]cGMP + cGMP); assay type: tissue-based, Platelet; conditions: platelet; Not Active = under 50% inhibition at 10 µM
[4] = biological target: T1, 3-hydroxy-3-methylglutaryl-coenzyme A reductase (Homo sapiens, UniProt P04035); parameters: species or system Escherichia coli
T1 sequence (P04035 whole entry): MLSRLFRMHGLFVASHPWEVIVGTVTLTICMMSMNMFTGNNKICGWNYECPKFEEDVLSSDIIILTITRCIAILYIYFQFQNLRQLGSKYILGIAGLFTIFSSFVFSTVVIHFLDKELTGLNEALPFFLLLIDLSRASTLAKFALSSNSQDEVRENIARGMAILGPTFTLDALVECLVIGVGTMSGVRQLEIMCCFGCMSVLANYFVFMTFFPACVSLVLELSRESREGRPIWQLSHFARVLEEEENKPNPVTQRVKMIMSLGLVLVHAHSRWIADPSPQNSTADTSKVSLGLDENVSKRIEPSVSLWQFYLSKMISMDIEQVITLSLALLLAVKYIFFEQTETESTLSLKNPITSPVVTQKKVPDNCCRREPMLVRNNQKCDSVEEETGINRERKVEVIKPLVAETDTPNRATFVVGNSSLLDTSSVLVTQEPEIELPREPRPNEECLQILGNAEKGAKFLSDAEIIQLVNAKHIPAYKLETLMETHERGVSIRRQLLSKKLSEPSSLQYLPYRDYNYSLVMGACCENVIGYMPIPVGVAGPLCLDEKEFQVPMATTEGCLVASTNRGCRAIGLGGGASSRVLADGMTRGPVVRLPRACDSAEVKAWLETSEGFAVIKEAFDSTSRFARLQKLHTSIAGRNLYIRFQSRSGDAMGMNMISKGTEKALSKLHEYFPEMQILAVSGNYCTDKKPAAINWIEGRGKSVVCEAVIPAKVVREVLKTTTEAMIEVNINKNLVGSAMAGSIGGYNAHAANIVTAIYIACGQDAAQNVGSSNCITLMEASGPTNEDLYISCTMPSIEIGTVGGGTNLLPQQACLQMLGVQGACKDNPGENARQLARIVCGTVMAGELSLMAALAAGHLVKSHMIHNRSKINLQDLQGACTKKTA

[5] = biological target: T2, Type-2 angiotensin II receptor (Homo sapiens, UniProt P50052); assay type: cell-based; conditions: cho-k1; further: in other assays of this panel Not Active means under 50% inhibition at 10 µM
T2 sequence (P50052 whole entry): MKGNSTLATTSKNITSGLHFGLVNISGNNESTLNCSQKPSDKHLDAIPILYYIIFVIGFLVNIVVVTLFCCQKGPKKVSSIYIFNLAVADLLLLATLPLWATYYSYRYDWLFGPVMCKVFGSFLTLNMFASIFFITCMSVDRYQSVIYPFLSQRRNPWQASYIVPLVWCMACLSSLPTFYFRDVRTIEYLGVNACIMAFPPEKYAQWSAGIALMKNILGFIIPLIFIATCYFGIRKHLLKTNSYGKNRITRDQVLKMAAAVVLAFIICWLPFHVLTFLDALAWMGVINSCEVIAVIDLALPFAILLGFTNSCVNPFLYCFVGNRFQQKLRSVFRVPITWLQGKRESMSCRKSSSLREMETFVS

Neutrophil elastase = biological target: T3, Neutrophil elastase (Homo sapiens, UniProt P08246); assay type: tissue-based
T3 sequence (P08246 whole entry): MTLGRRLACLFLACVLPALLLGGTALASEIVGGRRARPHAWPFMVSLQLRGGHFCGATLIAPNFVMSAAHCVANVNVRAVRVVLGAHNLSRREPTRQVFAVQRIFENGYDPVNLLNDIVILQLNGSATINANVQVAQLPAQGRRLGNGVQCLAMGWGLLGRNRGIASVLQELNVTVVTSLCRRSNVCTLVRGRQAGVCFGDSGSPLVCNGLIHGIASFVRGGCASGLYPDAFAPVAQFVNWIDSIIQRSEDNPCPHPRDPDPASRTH

[6] = biological target: Receptor tyrosine-protein kinase erbB-2 (Homo sapiens, UniProt P04626); experiment: biochemical; assay type: cell-based, Insect cells
[7] = biological target: T4, Vasoactive intestinal polypeptide receptor 1 (Homo sapiens, UniProt P32241); assay type: cell membranes, Membrane; conditions: ht-29; further: in other assays of this panel Not Active means under 50% inhibition at 10 µM
T4 sequence (P32241 whole entry): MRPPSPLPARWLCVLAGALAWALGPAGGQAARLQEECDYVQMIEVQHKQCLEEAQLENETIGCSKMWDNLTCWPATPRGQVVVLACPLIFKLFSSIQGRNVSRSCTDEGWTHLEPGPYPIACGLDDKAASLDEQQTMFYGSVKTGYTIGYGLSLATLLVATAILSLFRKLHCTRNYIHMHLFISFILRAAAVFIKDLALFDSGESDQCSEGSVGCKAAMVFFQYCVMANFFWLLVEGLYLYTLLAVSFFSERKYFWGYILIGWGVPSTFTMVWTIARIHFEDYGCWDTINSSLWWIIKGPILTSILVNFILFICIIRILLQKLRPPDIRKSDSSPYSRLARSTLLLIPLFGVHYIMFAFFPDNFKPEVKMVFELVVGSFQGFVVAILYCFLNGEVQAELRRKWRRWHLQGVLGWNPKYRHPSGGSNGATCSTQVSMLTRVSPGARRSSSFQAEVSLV

D(3) dopamine receptor = D(3) dopamine receptor (Homo sapiens, UniProt P35462); experiment: DRUGMATRIX: Dopamine D3 radioligand binding (ligand: [3H] Spiperone); assay type: cell membranes, CHO, Membrane; conditions: for Ki: read-out: Ki
[8] = biological target: 5-hydroxytryptamine receptor 6 (Homo sapiens, UniProt P50406); assay type: cell membranes, HeLa, Membrane; conditions: for Ki: read-out: Ki
Chain of 5-hydroxytryptamine receptor 6 (P50406 whole entry): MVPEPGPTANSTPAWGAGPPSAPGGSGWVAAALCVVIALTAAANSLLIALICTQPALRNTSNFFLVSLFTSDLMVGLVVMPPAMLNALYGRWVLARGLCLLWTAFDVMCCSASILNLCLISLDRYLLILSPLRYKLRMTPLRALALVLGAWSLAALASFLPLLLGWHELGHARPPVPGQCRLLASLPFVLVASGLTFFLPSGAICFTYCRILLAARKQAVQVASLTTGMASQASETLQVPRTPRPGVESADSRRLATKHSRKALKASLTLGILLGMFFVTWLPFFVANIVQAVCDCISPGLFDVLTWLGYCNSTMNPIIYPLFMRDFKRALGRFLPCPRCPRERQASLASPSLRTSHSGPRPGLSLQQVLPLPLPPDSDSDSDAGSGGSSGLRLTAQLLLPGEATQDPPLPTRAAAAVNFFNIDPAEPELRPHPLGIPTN

Chain of Vasopressin V1a receptor (P37288 whole entry): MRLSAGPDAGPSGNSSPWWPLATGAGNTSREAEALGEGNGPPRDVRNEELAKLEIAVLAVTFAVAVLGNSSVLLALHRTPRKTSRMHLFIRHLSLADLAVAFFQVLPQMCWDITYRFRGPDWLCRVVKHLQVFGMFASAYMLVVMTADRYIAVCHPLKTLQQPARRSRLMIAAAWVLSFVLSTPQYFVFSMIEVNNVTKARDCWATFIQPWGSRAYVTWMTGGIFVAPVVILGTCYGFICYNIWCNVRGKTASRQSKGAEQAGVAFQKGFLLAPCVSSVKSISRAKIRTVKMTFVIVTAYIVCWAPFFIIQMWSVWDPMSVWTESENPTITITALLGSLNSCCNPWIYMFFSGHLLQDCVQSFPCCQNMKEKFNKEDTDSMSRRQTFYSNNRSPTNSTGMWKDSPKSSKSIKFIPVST
Chain of Prostaglandin G/H synthase 1 (P23219 whole entry): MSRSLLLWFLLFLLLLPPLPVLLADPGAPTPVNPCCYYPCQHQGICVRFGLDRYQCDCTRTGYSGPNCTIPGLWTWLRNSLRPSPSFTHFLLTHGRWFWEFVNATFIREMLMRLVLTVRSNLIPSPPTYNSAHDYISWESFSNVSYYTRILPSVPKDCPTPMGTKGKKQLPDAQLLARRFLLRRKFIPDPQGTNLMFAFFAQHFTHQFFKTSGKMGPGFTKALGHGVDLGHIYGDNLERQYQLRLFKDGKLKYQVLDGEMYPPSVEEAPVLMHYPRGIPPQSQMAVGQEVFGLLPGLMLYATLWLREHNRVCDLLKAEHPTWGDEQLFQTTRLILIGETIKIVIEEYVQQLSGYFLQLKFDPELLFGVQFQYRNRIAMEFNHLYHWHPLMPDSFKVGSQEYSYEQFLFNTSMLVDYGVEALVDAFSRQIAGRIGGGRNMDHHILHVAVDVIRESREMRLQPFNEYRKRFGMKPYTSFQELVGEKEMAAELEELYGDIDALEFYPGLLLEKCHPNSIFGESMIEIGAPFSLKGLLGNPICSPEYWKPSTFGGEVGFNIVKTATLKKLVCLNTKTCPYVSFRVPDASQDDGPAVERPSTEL
Chain of Receptor tyrosine-protein kinase erbB-2 (P04626 whole entry): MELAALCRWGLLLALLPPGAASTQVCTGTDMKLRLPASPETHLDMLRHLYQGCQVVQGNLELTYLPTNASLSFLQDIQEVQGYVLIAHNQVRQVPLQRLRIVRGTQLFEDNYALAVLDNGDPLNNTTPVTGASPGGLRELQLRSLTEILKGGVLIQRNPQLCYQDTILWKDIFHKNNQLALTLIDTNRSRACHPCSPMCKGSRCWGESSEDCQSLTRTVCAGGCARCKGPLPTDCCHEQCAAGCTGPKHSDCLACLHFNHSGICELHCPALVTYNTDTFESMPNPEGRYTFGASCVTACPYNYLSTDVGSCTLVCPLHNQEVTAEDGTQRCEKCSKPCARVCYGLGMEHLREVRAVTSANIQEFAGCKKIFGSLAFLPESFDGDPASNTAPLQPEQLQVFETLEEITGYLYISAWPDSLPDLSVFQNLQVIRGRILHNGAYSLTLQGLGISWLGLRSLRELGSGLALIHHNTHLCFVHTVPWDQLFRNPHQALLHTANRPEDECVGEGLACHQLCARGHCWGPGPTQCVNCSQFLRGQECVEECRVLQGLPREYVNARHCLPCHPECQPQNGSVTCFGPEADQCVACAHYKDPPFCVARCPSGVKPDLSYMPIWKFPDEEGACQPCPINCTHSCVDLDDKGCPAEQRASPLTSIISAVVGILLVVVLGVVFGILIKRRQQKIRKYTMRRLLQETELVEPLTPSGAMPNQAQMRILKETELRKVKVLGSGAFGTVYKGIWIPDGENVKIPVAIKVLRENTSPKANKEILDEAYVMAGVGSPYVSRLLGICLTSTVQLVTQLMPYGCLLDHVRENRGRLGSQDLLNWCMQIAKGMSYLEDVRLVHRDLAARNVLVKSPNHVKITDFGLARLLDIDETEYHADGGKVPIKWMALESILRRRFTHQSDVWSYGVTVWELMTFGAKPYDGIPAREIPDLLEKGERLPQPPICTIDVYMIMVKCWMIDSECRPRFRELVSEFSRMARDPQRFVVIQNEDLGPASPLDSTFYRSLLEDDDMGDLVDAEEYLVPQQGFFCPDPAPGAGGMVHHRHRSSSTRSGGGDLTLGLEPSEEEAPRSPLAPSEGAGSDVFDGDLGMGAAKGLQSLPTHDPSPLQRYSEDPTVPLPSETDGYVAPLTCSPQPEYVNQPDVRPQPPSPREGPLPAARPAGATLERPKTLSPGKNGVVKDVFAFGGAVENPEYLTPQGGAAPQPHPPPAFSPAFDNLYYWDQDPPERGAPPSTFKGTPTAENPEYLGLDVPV
Chain of D(3) dopamine receptor (P35462 whole entry): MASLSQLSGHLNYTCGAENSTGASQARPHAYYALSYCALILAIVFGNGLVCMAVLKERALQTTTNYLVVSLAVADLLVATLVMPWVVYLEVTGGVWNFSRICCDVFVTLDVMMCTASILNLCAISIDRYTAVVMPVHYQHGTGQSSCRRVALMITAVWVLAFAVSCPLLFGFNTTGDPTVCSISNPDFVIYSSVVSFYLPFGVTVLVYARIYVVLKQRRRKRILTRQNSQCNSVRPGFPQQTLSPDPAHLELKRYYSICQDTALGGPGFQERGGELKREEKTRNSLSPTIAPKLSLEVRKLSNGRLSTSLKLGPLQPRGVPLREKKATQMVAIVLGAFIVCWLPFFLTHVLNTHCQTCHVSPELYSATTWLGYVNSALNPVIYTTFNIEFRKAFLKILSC
Chain of Cytochrome P450 2E1 (P05181 whole entry): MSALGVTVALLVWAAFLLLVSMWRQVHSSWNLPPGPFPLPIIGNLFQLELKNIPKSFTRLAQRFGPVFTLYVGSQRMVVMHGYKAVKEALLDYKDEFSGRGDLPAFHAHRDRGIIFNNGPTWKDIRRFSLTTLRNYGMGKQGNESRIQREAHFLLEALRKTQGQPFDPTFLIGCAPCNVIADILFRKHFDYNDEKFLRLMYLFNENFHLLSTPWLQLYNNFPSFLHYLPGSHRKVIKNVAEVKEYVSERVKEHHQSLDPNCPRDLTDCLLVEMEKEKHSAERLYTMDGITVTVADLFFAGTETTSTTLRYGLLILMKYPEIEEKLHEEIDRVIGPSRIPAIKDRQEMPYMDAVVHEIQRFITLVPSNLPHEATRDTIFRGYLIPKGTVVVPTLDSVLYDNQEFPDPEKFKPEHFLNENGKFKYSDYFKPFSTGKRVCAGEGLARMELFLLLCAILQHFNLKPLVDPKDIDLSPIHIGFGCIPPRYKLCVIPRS
Chain of Nitric oxide synthase 1 (P29476 whole entry): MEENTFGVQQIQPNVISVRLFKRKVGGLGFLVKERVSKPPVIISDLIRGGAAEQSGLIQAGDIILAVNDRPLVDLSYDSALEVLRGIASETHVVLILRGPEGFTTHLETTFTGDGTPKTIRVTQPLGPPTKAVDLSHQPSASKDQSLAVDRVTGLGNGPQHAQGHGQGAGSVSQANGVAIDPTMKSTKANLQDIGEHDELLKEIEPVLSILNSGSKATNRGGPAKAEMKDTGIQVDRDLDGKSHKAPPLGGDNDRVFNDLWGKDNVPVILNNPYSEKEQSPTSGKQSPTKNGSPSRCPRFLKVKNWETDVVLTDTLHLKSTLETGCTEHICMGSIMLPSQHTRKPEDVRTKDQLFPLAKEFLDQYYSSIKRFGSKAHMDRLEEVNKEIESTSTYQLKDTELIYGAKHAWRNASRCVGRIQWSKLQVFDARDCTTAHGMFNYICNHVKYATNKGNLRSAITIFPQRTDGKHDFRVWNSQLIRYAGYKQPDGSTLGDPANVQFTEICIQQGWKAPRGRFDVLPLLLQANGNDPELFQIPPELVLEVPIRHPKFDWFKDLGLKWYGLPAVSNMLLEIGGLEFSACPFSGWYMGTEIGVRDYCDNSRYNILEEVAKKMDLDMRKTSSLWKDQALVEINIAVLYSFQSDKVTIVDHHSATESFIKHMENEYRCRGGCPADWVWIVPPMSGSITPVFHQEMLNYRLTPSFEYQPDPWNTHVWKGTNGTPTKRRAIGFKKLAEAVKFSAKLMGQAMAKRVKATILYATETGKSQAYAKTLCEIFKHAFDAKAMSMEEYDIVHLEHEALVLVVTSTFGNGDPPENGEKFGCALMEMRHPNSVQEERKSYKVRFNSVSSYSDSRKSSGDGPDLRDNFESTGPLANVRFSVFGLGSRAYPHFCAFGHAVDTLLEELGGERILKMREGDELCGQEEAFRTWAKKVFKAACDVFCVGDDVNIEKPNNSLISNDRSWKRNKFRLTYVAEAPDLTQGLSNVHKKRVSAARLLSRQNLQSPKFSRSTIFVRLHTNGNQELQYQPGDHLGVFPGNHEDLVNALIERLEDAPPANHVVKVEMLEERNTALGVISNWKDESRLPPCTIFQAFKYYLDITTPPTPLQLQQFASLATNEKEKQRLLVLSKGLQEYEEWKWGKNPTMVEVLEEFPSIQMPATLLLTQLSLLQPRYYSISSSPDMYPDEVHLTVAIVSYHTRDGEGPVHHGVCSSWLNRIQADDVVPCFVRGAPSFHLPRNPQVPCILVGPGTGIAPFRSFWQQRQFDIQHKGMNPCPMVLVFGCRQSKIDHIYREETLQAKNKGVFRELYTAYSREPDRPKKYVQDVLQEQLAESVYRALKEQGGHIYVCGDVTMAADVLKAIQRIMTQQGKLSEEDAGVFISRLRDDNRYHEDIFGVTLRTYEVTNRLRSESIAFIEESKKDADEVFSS

Compound | IC50 (Cytochrome P450 2E1) | Ki (Cytochrome P450 2E1) | IC50 (Cannabinoid receptor 1) | IC50 (Vasopressin V1a receptor) | IC50 (Nitric oxide synthase 1) | IC50 [1] | IC50 ([2]; read-out: IC50) [µM] | Ki [2] [µM] | IC50 [3] | IC50 [4] | IC50 [5] | IC50 (Neutrophil elastase) | IC50 ([6]; read-out: IC50) [µM] | IC50 [7] | IC50 [2] | IC50 (D(3) dopamine receptor; read-out: IC50) [µM] | Ki (D(3) dopamine receptor) [µM] | IC50 ([6]; insect cells) | IC50 ([8]; read-out: IC50) [µM] | Ki [8] [µM] | also measured
COc1ccc(CCN2CCC(Nc3nc4ccccc4n3Cc3ccc(F)cc3)CC2)cc1 [ASTEMIZOLE] | Not Active | Not Active | Not Active | Not Active | Not Active | Not Active | 1.39 | 0.63 | Not Active | Not Active | Not Active | Not Active | 13.1 | Not Active |  |  |  |  |  |  | 
CN(C)CCCN1c2ccccc2CCc2ccc(Cl)cc21 [CLOMIPRAMINE] | Not Active | Not Active | Not Active | Not Active | Not Active | Not Active |  |  | Not Active | Not Active | Not Active | Not Active |  | Not Active | Not Active | 0.139 | 0.047 | Not Active | 0.245 | 0.114 | 
Clc1ccccc1C(c1ccccc1)(c1ccccc1)n1ccnc1 [CLOTRIMAZOLE] | Not Active | Not Active | Not Active | Not Active | Not Active | Not Active | 27.3 | 12.4 | Not Active | Not Active | Not Active | Not Active | 66.4 | Not Active |  | 2.65 | 0.899 |  | 12.5 | 5.82 | 
O=C(CCCN1CCC(O)(c2ccc(Cl)cc2)CC1)c1ccc(F)cc1 [HALOPERIDOL] | Not Active | Not Active | Not Active | Not Active | Not Active | Not Active |  |  | Not Active | Not Active | Not Active | Not Active |  | Not Active | Not Active |  |  | Not Active |  |  | IC50 ([8]; hela): Not Active
CN1CCN2c3ccccc3Cc3ccccc3C2C1 (configuration not stated) [MIANSERIN] | Not Active | Not Active | Not Active | Not Active | Not Active | Not Active |  |  | Not Active | Not Active | Not Active | Not Active |  | Not Active | Not Active |  |  | Not Active |  |  | IC50 (D(3) dopamine receptor; cho): Not Active
